What was measured:
[1] = target: Cytochrome P450 3A4 (Homo sapiens, UniProt P08684); experiment: Inhibition of CYP3A4 in human liver microsomes using testosterone as substrate by TDI- high-throughput based mass spectrometry method; assay type: ADME
[2] = target: T1, Mitogen-activated protein kinase kinase kinase kinase 1 (Homo sapiens, UniProt Q92918); experiment: Inhibition of HPK1 (unknown origin) followed by anti-GST antibody incubated for 60 mins measured after 1 hr by TR-FRET based LanthaScreen Eu-Kinase binding assay
[3] = Metabolic stability in human liver microsomes assessed as intrinsic clearance followed by substrate addition incubated for 30 mins by LC-MS/MS analysis; assay type: ADME, Microsome; details: read-out: CLH
[4] = Metabolic stability in mouse liver microsomes assessed as intrinsic clearance followed by substrate addition incubated for 30 mins by LC-MS/MS analysis; assay type: ADME, Microsome; details: read-out: CLH
[5] = Metabolic stability in rat liver microsomes assessed as intrinsic clearance followed by substrate addition incubated for 30 mins by LC-MS/MS analysis; assay type: ADME, Microsome; details: read-out: CLH
[6] = target: T1, Mitogen-activated protein kinase kinase kinase kinase 1; experiment: Inhibition of HPK1 in human Jurkat E6.1 cells assessed as SLP76 phosphorylation incubated for 30 mins followed by anti-CD3, biotinylated anti-SLP76 and TMB substrate addition measured after 3 hrs by ELISA assay; assay type: cell-based
[7] = Apparent permeability across apical to basolateral side in dog MDCK1 cells at 10 uM by LC-MS/MS analysis; assay type: ADME, cell-based, Canis lupus familiaris; details: for Papp A→B at 10 µM: MDCK
[8] = target: T1, Mitogen-activated protein kinase kinase kinase kinase 1; experiment: Inhibition of HPK1 (unknown origin) preincubated for 30 mins with compound followed by Biotin-SLP-76 substrate in presence of ATP incubated for 60 mins measured after 1 hr by TR-FRET based HTRF enzymatic assay
[9] = Volume of distribution in female C57BL/6 mouse at 1 mg/kg, iv administered as bolus dose measured upto 24 hrs by LC-MS/MS analysis; assay type: ADME, organism-based; details: in vivo
[10] = Metabolic stability in human hepatocytes assessed as hepatic clearance at 1 uM measured upto 3 hrs by LC-MS/MS analysis; assay type: ADME, cell-based, Hepatocyte
[11] = Metabolic stability in rat hepatocytes assessed as hepatic clearance; assay type: ADME, cell-based, Hepatocyte; design: dose or concentration left out as unconfirmed
[12] = Oral bioavailability in female C57BL/6 mouse at 25 mg/kg measured upto 24 hrs by LC-MS/MS analysis; assay type: ADME, organism-based; details: in vivo
[13] = Blood clearance in female C57BL/6 mouse at 1 mg/kg, iv administered as bolus dose measured upto 24 hrs by LC-MS/MS analysis; assay type: ADME, organism-based; details: whole blood
[14] = Metabolic stability in mouse hepatocytes assessed as hepatic clearance; assay type: ADME, cell-based, Hepatocyte; design: dose or concentration left out as unconfirmed
[15] = test system: T-cell line; experiment: Effects of compound on IL-2 production in human pan T-cells followed by anti-CD3/CD28-stimulation assessed as increase in IL-2 level incubated for 30 mins by ELISA method; assay type: functional, cell-based; details: 0.5 h

T1 sequence (Q92918 whole entry): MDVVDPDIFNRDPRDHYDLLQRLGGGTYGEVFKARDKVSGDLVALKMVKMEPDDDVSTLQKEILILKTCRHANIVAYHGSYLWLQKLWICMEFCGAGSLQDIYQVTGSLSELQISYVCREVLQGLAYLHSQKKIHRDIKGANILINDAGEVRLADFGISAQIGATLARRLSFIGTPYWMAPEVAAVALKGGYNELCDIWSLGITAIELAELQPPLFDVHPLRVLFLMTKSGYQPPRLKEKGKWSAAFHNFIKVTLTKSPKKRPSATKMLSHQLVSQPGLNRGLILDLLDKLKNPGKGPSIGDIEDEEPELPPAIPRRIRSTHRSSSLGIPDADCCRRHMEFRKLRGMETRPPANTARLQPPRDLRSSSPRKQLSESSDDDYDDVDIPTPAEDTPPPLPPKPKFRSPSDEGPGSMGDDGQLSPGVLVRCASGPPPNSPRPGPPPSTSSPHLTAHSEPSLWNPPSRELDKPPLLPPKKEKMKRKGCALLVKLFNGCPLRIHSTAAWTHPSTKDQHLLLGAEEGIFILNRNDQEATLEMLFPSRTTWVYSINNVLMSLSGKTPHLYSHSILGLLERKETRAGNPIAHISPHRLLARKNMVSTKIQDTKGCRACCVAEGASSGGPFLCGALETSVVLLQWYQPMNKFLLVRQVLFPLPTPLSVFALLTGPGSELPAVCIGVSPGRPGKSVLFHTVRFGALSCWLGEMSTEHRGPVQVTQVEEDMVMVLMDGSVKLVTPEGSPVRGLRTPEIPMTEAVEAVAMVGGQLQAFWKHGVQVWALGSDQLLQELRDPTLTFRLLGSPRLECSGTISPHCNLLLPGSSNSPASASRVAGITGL
Sequence of Cytochrome P450 3A4 (P08684 whole entry): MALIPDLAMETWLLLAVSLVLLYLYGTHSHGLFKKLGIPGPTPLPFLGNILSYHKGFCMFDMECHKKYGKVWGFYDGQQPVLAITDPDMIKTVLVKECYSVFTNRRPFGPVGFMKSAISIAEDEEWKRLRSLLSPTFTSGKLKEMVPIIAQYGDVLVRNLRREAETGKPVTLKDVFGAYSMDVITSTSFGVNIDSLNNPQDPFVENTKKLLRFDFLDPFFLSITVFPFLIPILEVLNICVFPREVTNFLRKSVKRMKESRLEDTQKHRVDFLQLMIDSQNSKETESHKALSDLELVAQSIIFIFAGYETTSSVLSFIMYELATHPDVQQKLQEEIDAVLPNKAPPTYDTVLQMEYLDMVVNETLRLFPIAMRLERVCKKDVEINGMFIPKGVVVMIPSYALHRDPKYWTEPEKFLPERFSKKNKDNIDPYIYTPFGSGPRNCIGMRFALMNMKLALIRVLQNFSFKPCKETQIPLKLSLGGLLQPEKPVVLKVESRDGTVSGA

Row | SMILES | IC50 [1] | Ki [2] | IC50 [6] | Papp A→B at 10 µM [7] | further results
1 | CN(C)C(=O)c1cc(-c2cnc3c(c2)C2(CCCC2)CN3)ccc1N | 9800 nM | 28 nM |  |  | 
2 | CN(C)C(=O)c1c(N)ccc(-c2cnc3c(c2Cl)[C@]2(CC[C@](C)(C#N)CC2)CN3)c1F |  |  | 7900 nM | 26 ×10⁻⁶ cm/s | 
3 | CN(C)C(=O)c1c(N)ccc(-c2cnc3c(c2Cl)C2(CCC2)CN3)c1F | > 10000 nM |  |  |  | 
4 | Cc1c(-c2ccc(N)c(C(=O)N(C)C)c2F)cnc2c1C1(CC1)CN2 | 6500 nM | 43 nM |  |  | 
5 | CN(C)C(=O)c1c(N)ccc(-c2cnc3c(c2Cl)[C@@]2(CC[C@@](C)(C(N)=O)C2)CN3)c1F |  | 85 nM | > 25000 nM | 0.4 ×10⁻⁶ cm/s | 
6 | CN(C)C(=O)c1c(N)ccc(-c2cnc3c(c2Cl)[C@]2(CC[C@@]4(CCCCNC4=O)C2)CN3)c1F |  |  | 1200 nM | 6.5 ×10⁻⁶ cm/s | Ki [8]: 7.2 nM
7 | CN(C)C(=O)c1c(N)ccc(-c2cnc3c(c2Cl)[C@]2(CC[C@](C)(C(N)=O)C2)CN3)c1F |  | 0.8 nM | 440 nM |  | Vd [9]: 1.9 L/kg; Papp ([7]; mdck1, 10 µM): 0.3 10^-6 cm/s; CLhep predicted at 1 µM [10]: 9.5 mL/min/kg; CLhep predicted [11]: 18 mL/min/kg; bioavailability [12]: 13%; clearance [13]: 57 mL/min/kg; CLhep predicted [14]: 33 mL/min/kg; EC50 [15]: 1560 nM
8 | CN(C)C(=O)c1c(N)ccc(-c2cnc3c(c2Cl)[C@]2(CC[C@](C)(O)CC2)CN3)c1F |  | 8.2 nM | 3000 nM | 5.7 ×10⁻⁶ cm/s | 
9 | CN(C)C(=O)c1c(N)ccc(-c2cnc3c(c2Cl)[C@]2(CC[C@@]4(CCCNC4=O)C2)CN3)c1F |  |  | 1700 nM | 7.1 ×10⁻⁶ cm/s | Ki [8]: 6.5 nM
10 | CN(C)C(=O)c1cc(-c2cnc3c(c2)C2(CCC2)CN3)ccc1N | > 10000 nM | 66 nM |  |  | 
11 | CN(C)C(=O)c1cc(-c2cnc3c(c2)C2(CC2)CN3)ccc1N | > 10000 nM | 33 nM |  |  | 
12 | CNC(=O)[C@H]1CC[C@@]2(CNc3ncc(-c4ccc(N)c(C(=O)N(C)C)c4F)c(Cl)c32)C1 (racemic) |  | 63 nM | 7400 nM | 0.8 ×10⁻⁶ cm/s | 
13 | CN(C)C(=O)c1c(N)ccc(-c2cnc3c(c2Cl)[C@]2(CC[C@](C)(C(N)=O)C2)CN3)c1F (racemic) |  | 2 nM | 1100 nM | 0.3 ×10⁻⁶ cm/s | 
14 | CN(C)C(=O)c1c(N)ccc(-c2cnc3c(c2Cl)[C@]2(CC[C@H](c4ncn[nH]4)C2)CN3)c1F (racemic) |  | 14 nM | 15000 nM | 0.4 ×10⁻⁶ cm/s | 
15 | CN(C)C(=O)c1c(N)ccc(-c2cnc3c(c2Cl)[C@]2(CC[C@H](O)C2)CN3)c1F (racemic) |  |  | 5000 nM | 5 ×10⁻⁶ cm/s | 
16 | CN(C)C(=O)c1c(N)ccc(-c2cnc3c(c2Cl)[C@]2(CC[C@](C)(C#N)C2)CN3)c1F (racemic) |  | 11 nM | 1700 nM | 21 ×10⁻⁶ cm/s | 

Second part, led by results:

Row | IC50 [1] | Ki [2] | IC50 [6] | Papp A→B at 10 µM [7] | SMILES | further results
17 | 1600 nM | 3.3 nM |  |  | CCc1c[nH]c2ncc(-c3ccc(N)c(C(=O)N(C)C)n3)cc12 | predicted hepatic clearance [3]: 17 mL/min/kg; predicted hepatic clearance [4]: 81 mL/min/kg; predicted hepatic clearance [5]: 28 mL/min/kg
18 |  | 2.6 nM |  |  | CCc1c[nH]c2ncc(-c3ccc(N)c(C(=O)N(C)C)c3)c(Cl)c12 | 
19 | 1700 nM | 5.2 nM |  |  | CCc1c[nH]c2ncc(-c3cccc(C(=O)N(C)C)c3)cc12 | predicted hepatic clearance [3]: 18 mL/min/kg; predicted hepatic clearance [4]: 84 mL/min/kg; predicted hepatic clearance [5]: 43 mL/min/kg
20 |  | 2.8 nM |  |  | CCc1c[nH]c2ncc(-c3ccc(N)c(C(=O)N(C)C)c3)c(CC)c12 | 
21 |  | 0.4 nM |  |  | COc1ccccc1-c1c[nH]c2ncc(-c3ccc(N)c(C(=O)N(C)C)c3)cc12 | 
22 |  | 2.4 nM |  |  | CCc1c[nH]c2ncc(-c3ccc(N)c(C(=O)N(C)C)c3)c(C)c12 | 
23 | 200 nM | 2.7 nM |  |  | CCc1c(Cl)[nH]c2ncc(-c3ccc(N)c(C(=O)N(C)C)c3)cc12 | 
24 | 500 nM | 2.1 nM |  |  | CCc1c[nH]c2ncc(-c3ccc(N)c(C(=O)N(C)C)c3)cc12 | predicted hepatic clearance [3]: 12 mL/min/kg; predicted hepatic clearance [4]: 80 mL/min/kg; predicted hepatic clearance [5]: 25 mL/min/kg
25 | 700 nM | 0.47 nM |  |  | CCc1c[nH]c2ncc(-c3ccc(N)c(C(=O)N(C)C)c3F)cc12 | predicted hepatic clearance [3]: 16 mL/min/kg; predicted hepatic clearance [4]: 80 mL/min/kg; predicted hepatic clearance [5]: 37 mL/min/kg
26 | 800 nM | 2.5 nM | 1500 nM | 23 ×10⁻⁶ cm/s | CN(C)C(=O)c1c(N)ccc(-c2cnc3c(c2Cl)C2(CCCC2)CN3)c1F | 
27 |  | 1.5 nM |  |  | CN(C)C(=O)c1cc(-c2cnc3[nH]ccc3c2)ccc1N | 
28 |  | 1.8 nM | 14000 nM | 0.2 ×10⁻⁶ cm/s | CN(C)C(=O)c1c(N)ccc(-c2cnc3c(c2Cl)[C@]2(CC[C@H](C(N)=O)C2)CN3)c1F (racemic) | 
29 |  | 8.1 nM | 2000 nM | 4.1 ×10⁻⁶ cm/s | CN(C)C(=O)c1c(N)ccc(-c2cnc3c(c2Cl)[C@]2(CC[C@](C)(O)C2)CN3)c1F (racemic) | 

Source: ChEMBL document CHEMBL5038654, “Discovery of Spiro-azaindoline Inhibitors of Hematopoietic Progenitor Kinase 1 (HPK1)” (ACS Med Chem Lett, 2022)
